Source: paper PMC5589576, “Targeting the apoptotic Mcl-1-PUMA interface with a dual-acting compound” (Oncotarget, 2017)

Columns and labels:
[1] = system: DLD-1 cells infected with Ad-PUMA; assay: PUMA-dependent apoptosis of DLD-1 cells infected with Ad-PUMA (Caspase-Glo 3/7); type: cell-based; settings: Homo sapiens, DLD-1, Ad-PUMA, 48h
Procedure: (§1) Tests of candidate compounds on blocking Synthesis of compound 8
(§2) PUMA-dependent apoptosis To a suspension of rhodanine (7.57 mmol) in dry Construction and validation of recombinant ethanol (10 mL), 4-Biphentlaldehyde (11.3 mmol), N-(2-Adenovirus By taking pHBAd-MCMV-GFP (Hanbio) as hydroxyethyl) piperazine (11.3 mmol), and glacial acetic vector, the construction and purification of Adenoviruses acid (0.75 mmol) were added and the resulting mixture overexpressing PUMA and PUMA-∆BH3 (PUMA was further stirred under reflux for 5-6 h. The reaction was without the BH3 domain) were performed according to completed and then cooled in an ice bath. The precipitated former reports. […]
(§3) various multiplicity of infection (MOI, 6 points, from 0 The crystal structure of Comp8 was solved by X-ray to 160) in 96-well, white, flat-bottom plates (Nunc). […] Shake gently and record the luminescence of each well on TECAN Infinite M1000 S.Y.Z., H.C., J.N.L and J.Y.L. conceived the project.
(§4) Microplate Spectrophotometer. The data were analyzed J.Y.L. and Z.T. designed the experiment. J.Y.L., Z.T., by Graphpad Prism and suitable MOI of Ad-PUMA for N.Z., X.Y.L. and C.Y.L. performed the experiments and following cell infection can be determined in this process. prepared the manuscript. […]
(§5) added to make the final compound concentrations range 2. […] The results were detected by flexible docking. […]

MCF-7 cells = assay: MTT test on suppressing cancer cells, MCF-7; type: cell-based; settings: Homo sapiens, MCF7, 24h
Procedure: (§6) (Nunc). To check the interference effects of candidate membranes. […]
(§7) Microplate Spectrophotometer with excitation wavelength (Boster). being 432 nm. The IC50 calculations were performed by Graphpad Prism 5 (Graphpad software, Inc.). Key residues discovery
(§8) Tests of candidate compounds on suppressing In the present study, key residues involved in the […]
(§9) by using site-directed mutagenesis and FPA competition
(§10) Cell lines including A2780, MCF-7 and SMMC- assays in combination. According to the results of pairwise 7721 were cultured to the logarithmic growth phase per-residue free energy decomposition, the residues in 3 ml complete media (RPMI1640 plus 10%FBS), contributing a lot to the binding of PUMA/Comp8 to 4 Mcl-1 were subjected to site-directed mutagenesis. By respectively. After adjusting their concentrations to 5×10 reference to the primers listed in Supplementary Table5, cells/ml with complete media, these cell lines were plated overlapping extension PCR was conducted to realize into 96-well, transparent, flat-bottom plates (150 μl/well), site-directed mutagenesis. After verified by gene each point was prepared in three replicates. The density sequencing, the individually mutated PCR products were of cultured cell lines was evaluated by MTT tests. When cloned into the expressing vector pET-43.1a (+). […]

[2] = system: A2780, MCF-7 and SMMC-7721; assay: MTT test, three cancer cell lines together; type: cell-based; settings: on A2780, MCF-7 and SMMC-7721, range over the three lines
Procedure: as §6, §7, §8, §9, §10

SMMC-7721 cells = assay: MTT test on suppressing cancer cells, SMMC-7721; type: cell-based; settings: Homo sapiens, 24h
Procedure: as §6, §7, §8, §9, §10

A2780 cells = assay: MTT test on suppressing cancer cells, A2780; type: cell-based; settings: Homo sapiens, 24h
Procedure: as §6, §7, §8, §9, §10

[3] = system: HUVECs infected with Ad-PUMA; assay: PUMA-induced apoptosis of HUVECs infected with Ad-PUMA (Caspase-Glo 3/7); type: cell-based; settings: low-dose, less than 12.5 μM, 48h
Procedure: as §1, §2, §3, §4, §5

Mcl-1WT = biological target: T1, Mcl-1WT (Homo sapiens, UniProt Q07820); assay: FPA competition assay, wildtype Mcl-1; type: binding; settings: FITC-Mcl-BH3 probe
T1 construct: implied by Ni2+-NTA purification from pET-43.1a(+)); made in house; host or cells: E. coli BL21
T1 sequence (Q07820 172-327): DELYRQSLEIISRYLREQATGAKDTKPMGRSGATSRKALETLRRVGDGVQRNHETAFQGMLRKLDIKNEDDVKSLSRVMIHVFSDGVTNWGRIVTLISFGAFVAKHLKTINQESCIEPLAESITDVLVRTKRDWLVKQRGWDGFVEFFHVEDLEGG

Mcl-1N241A = biological target: T2, Mcl-1N241A (Homo sapiens, UniProt Q07820, N260A); assay: FPA competition assay, mutant Mcl-1 N241A; type: binding
T2 construct: implied by Ni2+-NTA purification from pET-43.1a(+)); made in house; host or cells: E. coli BL21
T2 sequence (Q07820 172-327 N260A): as the sequence (Q07820 172-327) above, with N89A counted along it
Procedure: (§11) 1 protein was induced by 0.6 mM IPTG for 20 h in the Flow cytometry condition of 20°C, 160 rpm. The strains were harvested by centrifugation (6000 rpm, 10 min, 4°C) and broken Tested cells (A2780, MCF-7 and SMMC-7721) by ultrasonication (10 s operation and 10 s stop, 5 min). were plated in 6-well plates (1×10^5 cells/well) and treated […]
(§12) All cells were detached by trypsin and washed manufacturer ’s instructions. The purified Mcl-1 was (three times) by precooled PBS. The resuspended cells analyzed by 15% SDS-PAGE and dialyzed against 10 mM were stained by Annexin V-FITC and PI in sequence PBS (pH 7.4) before being stored under −80°C for later use. before being detected by flow cytometry.
(§13) FPA competition assays The FITC labelled
(§14) BH3 peptide of Mcl-1 (FITC-Mcl-BH3, FITC-AHx-Western blot analysis […]
(§15) and used as fluorescence probe in the FPA competition A2780, MCF-7 and SMMC-7721 cells treated with assays. All assays were performed in the assay and without Comp8 were harvested, washed by precooled

Mcl-1H205A = biological target: T3, Mcl-1H205A (Homo sapiens, UniProt Q07820, H224A); assay: FPA competition assay, mutant Mcl-1 H205A; type: binding
T3 construct: implied by Ni2+-NTA purification from pET-43.1a(+)); made in house; host or cells: E. coli BL21
T3 sequence (Q07820 172-327 H224A): as the sequence (Q07820 172-327) above, with H53A counted along it
Procedure: as §11, §12, §13, §14, §15

[4] = system: Caspase-3, Cyto-c and Bcl-2 in A2780, MCF-7 and SMMC-7721 cells; assay: Western blot analysis of apoptotic marker proteins; type: cell-based
Procedure: as §14
-NH2) was synthesized […]
and used as fluorescence probe in the FPA competition A2780, MCF-7 and SMMC-7721 cells treated with assays. All assays were performed in the assay and without Comp8 were harvested, washed by precooled buffer (pH 7.4) composed of 20 mM Tris, 50 mM NaCl, PBS and split by RIPA lysis buffer (Thermo) containing 3 mM DTT and 2% DMSO. The FPA competition assays PMSF (protease inhibitor). Quantified protein samples were carried out in the 96-well, black, flat-bottom plates were separated by SDS-PAGE and then transferred to NC (Nunc). To check the interference effects of candidate membranes. After being blocked for 1h, all membranes compounds on the interaction between Mcl-1 and FITC- were incubated with primary antibodies against protein Mcl-BH3, solutions containing 250 nM Mcl-1 and 250 nM Caspase (1:500, Abcam), Cyto-c (1:500, Abcam) and fluorescence probes were titrated with 250 μM selected Bcl-2 (1:500, Abcam) at 4℃ overnight. […] The emission fluorescence changes were antibodies (1:10000, Jackson) for 1 h at 37°C, the signals recorded from 480 to 540 nm by TECAN Infinite M1000 were detected with ECL western blot detection system Microplate Spectrophotometer with excitation wavelength (Boster). being 432 nm. […]

[5] = system: A2780, MCF-7 and SMMC-7721; assay: Flow cytometry detection of apoptosis (Annexin V-FITC/PI); type: cell-based; settings: 48h; 47.42 μM for A2780 and MCF-7, 27.80 μM for SMMC-7721
Procedure: After cleared by centrifugation (12000 rpm, 30 min) and with/without the given concentration of Comp8 for 48h filtration (0.44 μm filter membrane), the lysate was purified (47.42 μM for A2780 and MCF-7, 27.80 μM for SMMC-by Ni2+-NTA sepharose gel column (7Sea) following the 7721). All cells were detached by trypsin and washed manufacturer ’s instructions. The purified Mcl-1 was (three times) by precooled PBS. The resuspended cells analyzed by 15% SDS-PAGE and dialyzed against 10 mM were stained by Annexin V-FITC and PI in sequence PBS (pH 7.4) before being stored under −80°C for later use. before being detected by flow cytometry. […]
as §6, §7, §8, §9
Cell lines including A2780, MCF-7 and SMMC- assays in combination. According to the results of pairwise 7721 were cultured to the logarithmic growth phase per-residue free energy decomposition, the residues in 3 ml complete media (RPMI1640 plus 10%FBS), contributing a lot to the binding of PUMA/Comp8 to 4 Mcl-1 were subjected to site-directed mutagenesis. […]

Mcl-1R244A = biological target: T4, Mcl-1R244A (Homo sapiens, UniProt Q07820, R263A); assay: FPA competition assay, mutant Mcl-1 R244A; type: binding
T4 construct: implied by Ni2+-NTA purification from pET-43.1a(+)); made in house; host or cells: E. coli BL21
T4 sequence (Q07820 172-327 R263A): as the sequence (Q07820 172-327) above, with R92A counted along it
Procedure: as §11, §12, §13, §14, §15

Mcl-1F251A = biological target: T5, Mcl-1F251A (Homo sapiens, UniProt Q07820, F270A); assay: FPA competition assay, mutant Mcl-1 F251A; type: binding
T5 construct: implied by Ni2+-NTA purification from pET-43.1a(+)); made in house; host or cells: E. coli BL21
T5 sequence (Q07820 172-327 F270A): as the sequence (Q07820 172-327) above, with F99A counted along it
Procedure: as §11, §12, §13, §14, §15

Mcl-1D237A = biological target: T6, Mcl-1D237A (Homo sapiens, UniProt Q07820, D256A); assay: FPA competition assay, mutant Mcl-1 D237A; type: binding
T6 construct: implied by Ni2+-NTA purification from pET-43.1a(+)); made in house; host or cells: E. coli BL21
T6 sequence (Q07820 172-327 D256A): as the sequence (Q07820 172-327) above, with D85A counted along it
Procedure: as §11, §12, §13, §14, §15

Mcl-1 = settings: known Mcl-1 inhibitor; cited from earlier work

| Structure (SMILES) | EC50 ([1]; read-out: EC50 (action on apoptosis)) | IC50 (MCF-7 cells) | IC50 [2] | IC50 (SMMC-7721 cells) | IC50 (A2780 cells) | effect on PUMA-induced apoptosis of HUVECs [3] | Ki (Mcl-1WT) | Ki (Mcl-1N241A) | Ki (Mcl-1H205A) | changes of three apoptosis indicators (WB) [4] | apoptotic cells (FCM) [5] | IC50 ([1]; read-out: IC50 (inhibition of PUMA-dependent apoptosis)) | Ki (Mcl-1R244A) | Ki (Mcl-1F251A) | Ki (Mcl-1D237A) | Ki (Mcl-1) |
| --- | --- | --- | --- | --- | --- | --- | --- | --- | --- | --- | --- | --- | --- | --- | --- | --- |
| CC1(C)CCC(c2ccc(Cl)cc2)=C(CN2CCN(c3ccc(C(=O)NS(=O)(=O)c4ccc(N[C@H](CCN5CCOCC5)CSc5ccccc5)c(S(=O)(=O)C(F)(F)F)c4)cc3)CC2)C1 [ABT-263, reference compound] | 2.75 ± 0.24 µM | 32 ± 3.48 µM | 20 to 50 µM | 29.5 ± 1.36 µM | 21.8 ± 1.85 µM | – | – | – | – | – | – | – | – | – | – | – |
| O=C1N=C(N2CCN(CCO)CC2)S/C1=C\c1ccc(-c2ccccc2)cc1 [Comp8] | – | 44.2 ± 2.3 µM | 20 to 50 µM | 44.2 ± 2.22 µM | 47.6 ± 2.99 µM | inhibitory effect | 0.3 ± 0.04 µM | 1.95 ± 0.45 µM | 1.24 ± 0.35 µM | fitted well with the characteristics of apoptosis | substantial increase of apoptotic cells | 38.9 ± 0.91 µM | 3.52 ± 0.59 µM | 0.66 ± 0.13 µM | 1.98 ± 0.31 µM | – |
| O=C(O)CSc1cc(NS(=O)(=O)c2ccc(Br)cc2)c2ccccc2c1O [UMI-77] | – | – | – | – | – | – | – | – | – | – | – | – | – | – | – | 0.49 µM |
